In ChEMBL document CHEMBL5154879, “Induction of Genes Implicated in Stress Response and Autophagy by a Novel Quinolin-8-yl-nicotinamide QN523 in Pancreatic Cancer” (J Med Chem, 2022) one finds IC50 data, which are given here for 45 molecules.

What all share (assay type): functional, cell-based
For one experiment, the system named is MIA PaCa-2. Briefly: Cytotoxicity against human MIA PaCa-2 cells assessed as inhibition of cell growth incubated for 72 hrs by MTT assay. Conditions: MIA PaCa-2, 72 h. Background: Tetrazolium dyes change colour on reduction, which living cells bring about.
The subject of the next experiment is PANC-1. Briefly: Cytotoxicity against human PANC-1 cells assessed as inhibition of cell growth incubated for 72 hrs by MTT assay. The settings on record: PANC-1, 72 h.
Another experiment concerns BXPC-3. Kind of experiment: Cytotoxicity against human BXPC-3 cells assessed as inhibition of cell growth incubated for 72 hrs by MTT assay. Conditions: BXPC-3, 72 h.

One may read the IC50 as the midpoint of a concentration-inhibition curve.

Consider `O=C(Nc1ccc(Br)c2cccnc12)c1cnccn1`, for which the half-inhibitory concentration (IC50) with MIA PaCa-2 worked out at 0.75 µM; in the experiment on PANC-1, 7 µM; in the experiment with BXPC-3 it was 7.5 µM.
As to `Cc1cnc(C(=O)Nc2cc(OCCNC(=O)OC(C)(C)C)cc3cccnc23)cn1`, the IC50 in the experiment on MIA PaCa-2 was 0.67 µM; with PANC-1, 2.17 µM; in the experiment on BXPC-3, 3.67 µM.
For `O=C(Nc1cccc2cccnc12)c1ncccn1` the same measures were 0.33 µM, more than 10 µM and more than 10 µM.
Consider `CC(C)(C)OC(=O)N1CCC(CCOc2cc(NC(=O)c3ncccn3)c3ncccc3c2)CC1`, for which the IC50 in the experiment on MIA PaCa-2, with PANC-1 and in the experiment with BXPC-3 was more than 10 µM throughout.
`O=C(Nc1cccc2cccnc12)c1ccc(Br)nc1`: the IC50 in the experiment with MIA PaCa-2, in the experiment with PANC-1 and in the experiment with BXPC-3 was more than 10 µM each time.
Consider `CC(C)(C)OC(=O)C1CCN(CCOc2cc(NC(=O)c3cnccn3)c3ncccc3c2)CC1`, for which the IC50 with MIA PaCa-2 was found to be 3.67 µM; with PANC-1, 9.5 µM; in the experiment on BXPC-3, 3.33 µM.
For `O=C(Nc1cc(OCCF)cc2cccnc12)c1cnccn1` the same measures were 0.37 µM, 0.53 µM and 4.33 µM.
Take `Cc1cnc(C(=O)Nc2ccc3ncccc3c2)cn1`: the half-maximal inhibitory concentration (IC50) in the experiment on MIA PaCa-2, with PANC-1 and in the experiment on BXPC-3 was more than 10 µM in each case.
In the case of `O=C(Nc1cccc2cccnc12)c1cccc(Br)n1`, the half-maximal inhibitory concentration (IC50) with MIA PaCa-2, in the experiment with PANC-1 and in the experiment with BXPC-3 was more than 10 µM in each case.
Regarding `Cc1ccc(C(=O)Nc2cccc3cccnc23)cn1`, the IC50 in the experiment with MIA PaCa-2, in the experiment on PANC-1 and with BXPC-3 was more than 10 µM in each case.
With `Cc1cnc(C(=O)Nc2cc(OCCC3CCNCC3)cc3cccnc23)cn1`, the figures for the half-inhibitory concentration (IC50) in the experiment on MIA PaCa-2, with PANC-1 and with BXPC-3 were 6.17 µM, more than 10 µM and 8.33 µM, respectively.
For `O=C(Nc1cc(OCCN2CCOCC2)cc2cccnc12)c1cnccn1` the same measures were 1.7 µM, 8.17 µM and 5.17 µM.
As to `O=C(Nc1cc(Cl)cc2cccnc12)c1cnccn1`, the figures for the half-maximal inhibitory concentration (IC50) in the experiment on MIA PaCa-2, with PANC-1 and with BXPC-3 were 2.83 µM, 2.7 µM and more than 10 µM, respectively.
Take `COc1cc(NC(=O)c2cnc(C)cn2)c2ncccc2c1`: the half-inhibitory concentration (IC50) with MIA PaCa-2 worked out at 0.27 µM; with PANC-1 it was 0.8 µM; in the experiment with BXPC-3, 6.7 µM.
For `O=C(Nc1cccc2cccnc12)c1cccnn1` the same measures were 8.5 µM, more than 10 µM and more than 10 µM.
For `Cc1cnc(C(=O)Nc2cccc3cccnc23)cn1`, the concentration for half-maximal inhibition (IC50) in the experiment on MIA PaCa-2 was 0.5 µM; with PANC-1 it was 1.8 µM; in the experiment on BXPC-3 it was 9.4 µM.
For `Cc1cnc(C(=O)Nc2cc(F)cc3cccnc23)cn1` the same measures were 0.31 µM, 2.1 µM and more than 10 µM.
For `Cc1cnc(C(=O)Nc2cccc3ccc(C)nc23)cn1` the same measures were more than 10 µM, more than 10 µM and more than 10 µM.
For `Cc1cnc(C(=O)Nc2cc(OCCN(C)C)cc3cccnc23)cn1` the same measures were 1.8 µM, 4.5 µM and 9.67 µM.
As for `Cc1cnc(C(=O)Nc2cc(OCCC3CCN(C(=O)OC(C)(C)C)CC3)cc3cccnc23)cn1`, the IC50 is 9 µM with MIA PaCa-2, 9.67 µM in the experiment on PANC-1 and 9.33 µM in the experiment with BXPC-3.
`O=C(Nc1nccc2cccnc12)c1cnccn1`: the IC50 turned out to be 7.7 µM in the experiment on MIA PaCa-2, 6.7 µM in the experiment on PANC-1 and 7.2 µM in the experiment on BXPC-3.
For `CN(C)CCOc1cc(NC(=O)c2cnccn2)c2ncccc2c1` the same measures were more than 10 µM, more than 10 µM and more than 10 µM.
In the case of `COc1cc(NC(=O)c2ncccn2)c2ncccc2c1`, the IC50 with MIA PaCa-2 was 1.3 µM; in the experiment with PANC-1 it was 9 µM; in the experiment on BXPC-3 it was more than 10 µM.
For `O=C(Nc1cccc2cccnc12)c1cnc(Cl)cn1` the same measures were 7 µM, 9.3 µM and more than 10 µM.
Take `NCCOc1cc(NC(=O)c2cnccn2)c2ncccc2c1`: the half-inhibitory concentration (IC50) in the experiment on MIA PaCa-2, in the experiment on PANC-1 and in the experiment on BXPC-3 was more than 10 µM in each case.
`O=C(Nc1cccc2cccnc12)c1ccc(F)nc1`: the half-maximal inhibitory concentration (IC50) in the experiment with MIA PaCa-2, in the experiment with PANC-1 and in the experiment with BXPC-3 was more than 10 µM in each case.
For the molecule `O=C(Nc1cc(OCCN2CCCCC2)cc2cccnc12)c1cnccn1`, the 50% inhibitory concentration (IC50) in the experiment on MIA PaCa-2, in the experiment on PANC-1 and in the experiment on BXPC-3 was more than 10 µM each time.
As for `CC(C)(C)OC(=O)NCCOc1cc(NC(=O)c2cnccn2)c2ncccc2c1`, the IC50 in the experiment on MIA PaCa-2 is 0.87 µM; in the experiment with PANC-1, 9.5 µM; with BXPC-3, 9.17 µM.
For `CN(C)Cc1ccc2cccc(NC(=O)c3cnccn3)c2n1` the same measures were more than 10 µM, more than 10 µM and more than 10 µM.
`O=C(Nc1cc(Cl)cc2cccnc12)c1ncccn1`: the concentration for half-maximal inhibition (IC50) in the experiment on MIA PaCa-2 was 0.8 µM; with PANC-1, 4.67 µM; with BXPC-3, more than 10 µM.
For `O=C(Nc1cc(OCCC2CCNCC2)cc2cccnc12)c1ncccn1` the same measures were more than 10 µM, more than 10 µM and more than 10 µM.
For `O=C(Nc1cc(F)cc2cccnc12)c1ncccn1` the same measures were 0.3 µM, 5.3 µM and more than 10 µM.
With `O=C(Nc1cc(F)cc2cccnc12)c1cnccn1`, the IC50 in the experiment with MIA PaCa-2 was 0.13 µM; in the experiment with PANC-1, 0.67 µM; with BXPC-3, more than 10 µM.
For `O=C(Nc1cccc2cccnc12)c1ncc2ccccc2n1` the same measures were more than 10 µM, more than 10 µM and more than 10 µM.
With `Cc1cnc(C(=O)Nc2ccc(Br)c3cccnc23)cn1`, the IC50 is 2.2 µM with MIA PaCa-2, 6.8 µM in the experiment on PANC-1 and more than 10 µM in the experiment with BXPC-3.
Regarding `CC(C)(C)OC(=O)NCCOc1cc(NC(=O)c2ncccn2)c2ncccc2c1`, the IC50 in the experiment with MIA PaCa-2, with PANC-1 and with BXPC-3 was more than 10 µM throughout.
For `COc1cc(NC(=O)c2cnccn2)c2ncccc2c1`, the half-inhibitory concentration (IC50) with MIA PaCa-2 was 0.47 µM; in the experiment with PANC-1 it was 2.17 µM; in the experiment on BXPC-3 it was 0.47 µM.
As for `Cc1cnc(C(=O)Nc2cc(OCCN)cc3cccnc23)cn1`, the IC50 in the experiment with MIA PaCa-2, with PANC-1 and in the experiment with BXPC-3 was more than 10 µM each time.
For the molecule `Cc1ccc2cccc(NC(=O)c3ncccn3)c2n1`, the half-inhibitory concentration (IC50) in the experiment on MIA PaCa-2, with PANC-1 and in the experiment with BXPC-3 was more than 10 µM each time.
Regarding `Cc1cnc(C(=O)Nc2cc(Cl)cc3cccnc23)cn1`, the IC50 in the experiment with MIA PaCa-2 is 1.5 µM; with PANC-1 it was 1.77 µM; in the experiment on BXPC-3 it was 5.2 µM.
For `Cc1cnc(C(=O)Nc2cc(OCCN3CCOCC3)cc3cccnc23)cn1` the same measures were 0.73 µM, 3.5 µM and 2 µM.
As for `O=C(Nc1cccc2cccnc12)c1ccc(Br)cn1`, the IC50 in the experiment with MIA PaCa-2 is 1.8 µM; in the experiment on PANC-1, 4 µM; in the experiment with BXPC-3 it was more than 10 µM.
For `NCCOc1cc(NC(=O)c2ncccn2)c2ncccc2c1` the same measures were more than 10 µM, more than 10 µM and more than 10 µM.
For `Cc1cnc(C(=O)Nc2cccc3ncccc23)cn1` the same measures were more than 10 µM, more than 10 µM and more than 10 µM.
For the molecule `Cc1ccc2cccc(NC(=O)c3cnccn3)c2n1`, the concentration for half-maximal inhibition (IC50) with MIA PaCa-2, in the experiment on PANC-1 and in the experiment with BXPC-3 was more than 10 µM throughout.
